We go through 29 molecules from US9994594B2, “Inhibitors of arginase and their therapeutic applications” (MARS, INCORPORATED, priority 2010, dated 2018).

Structures can show the parent of a compound that is named as a salt. Where two headings read alike, the source gives them in different places.

The target in one assay is T1, human arginase I (ARG I) (Homo sapiens, UniProt P05089).
T1 sequence (P05089 1-322): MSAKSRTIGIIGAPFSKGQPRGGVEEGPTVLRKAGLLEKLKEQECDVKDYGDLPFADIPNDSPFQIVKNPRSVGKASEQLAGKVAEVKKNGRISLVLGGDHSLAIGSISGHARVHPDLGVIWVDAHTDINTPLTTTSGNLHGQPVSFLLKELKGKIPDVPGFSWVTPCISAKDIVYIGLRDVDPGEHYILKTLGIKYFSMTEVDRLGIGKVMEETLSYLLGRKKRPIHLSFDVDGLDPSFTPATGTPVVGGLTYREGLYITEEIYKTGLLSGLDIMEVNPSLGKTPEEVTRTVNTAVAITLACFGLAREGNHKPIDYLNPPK
Nature of the assay: Inhibition of arginase I, spectrophotometric urea assay at 530 nm. The assay is classed as biochemical. The conditions noted are these: read-out: Potency (ARG I). In a few lines: (§1)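 IC50 was derived by regression of OD530 normalized to uninhibited-enzyme controls against log concentration. Urea from 60-min, 37 °C turnover of L-arginine with manganese sulfate was detected after acid o-phthaldialdehyde/primaquine quench and 10 min colour development. Arginase I and II came from 100 ng/ml stocks in pH 7.4 phosphate with ovalbumin.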

The target of another assay is T2, arginase II (ARG II) (Homo sapiens, UniProt P78540).
T2 sequence (P78540 23-354): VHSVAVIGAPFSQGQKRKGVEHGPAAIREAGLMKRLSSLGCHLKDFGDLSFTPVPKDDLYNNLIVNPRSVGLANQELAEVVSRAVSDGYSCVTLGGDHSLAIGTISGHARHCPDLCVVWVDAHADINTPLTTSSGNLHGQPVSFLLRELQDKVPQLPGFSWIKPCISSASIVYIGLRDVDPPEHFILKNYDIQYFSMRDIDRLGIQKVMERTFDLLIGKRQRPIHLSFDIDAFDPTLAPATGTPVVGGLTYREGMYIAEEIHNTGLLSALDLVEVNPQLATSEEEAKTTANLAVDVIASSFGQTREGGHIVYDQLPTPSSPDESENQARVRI
Nature of the assay: Inhibition of arginase II, spectrophotometric urea assay at 530 nm. The class given is biochemical. In a few lines:
as §1

The mark [1] stands for this setting: Formula II compounds, Table 2-A.
Where [2] appears, read: Formula II compounds, Table 2-A, read-out: Potency (ARG).
[3] abbreviates: Formula I compounds, Table 2, read-out: Potency (ARG II).

Regarding `NC(CCCCB(O)O)(C(=O)O)C1CCNCC1` (stereo not shown) [Example 88-A, 2-amino-6-borono-2-(piperidin-4-yl)hexanoic acid dihydrochloride], the IC50 at human arginase I (ARG I) (setting [1]) and on arginase II (ARG II) (setting [2]) was 251 to 1000 nM each time.

As for `NC(CCCCB(O)O)(C(=O)O)C1CCN(Cc2ccc(Cl)cc2)CC1` (stereo not shown) [Example 89-A, 2-amino-6-borono-2-(1-(4-chlorobenzyl)piperidin-4-yl)hexanoic acid dihydrochloride], the IC50 at human arginase I (ARG I) (setting [1]) and on arginase II (ARG II) (setting [2]) was 0.1 to 250 nM each time.

Consider `NC(CCCCB(O)O)(C(=O)O)C1CCN(Cc2ccc3c(c2)OCO3)CC1` (stereo not shown) [Example 90-A, 2-amino-2-(1-(benzo[d][1,3]dioxol-5-ylmethyl)piperidin-4-yl)-6-boronohexanoic acid dihydrochloride], for which the IC50 on human arginase I (ARG I) (setting [1]) and at arginase II (ARG II) (setting [2]) was 0.1 to 250 nM throughout.

Consider `NC(CCCCB(O)O)(C(=O)O)C1CCN(Cc2cc3c(cc2Cl)OCO3)CC1` (stereo not shown) [Example 91-A, 2-amino-6-borono-2-(1-((6-chlorobenzo[d][1,3]dioxol-5-yl)methyl)piperidin-4-yl)hexanoic acid dihydrochloride], for which the IC50 at human arginase I (ARG I) (setting [1]) is 0.1 to 250 nM; at arginase II (ARG II) (setting [2]) it was 251 to 1000 nM.

Regarding `CC(C)CCN1CCC(C(N)(CCCCB(O)O)C(=O)O)CC1` (stereo not shown) [Example 92-A, 2-amino-6-borono-2-(1-isopentylpiperidin-4-yl)hexanoic acid dihydrochloride], the IC50 at human arginase I (ARG I) (setting [1]) and at arginase II (ARG II) (setting [2]) was 0.1 to 250 nM throughout.

On to `NC(CCCCB(O)O)(C(=O)O)C1CCN(Cc2ccc(C(F)(F)F)cc2)CC1` (stereo not shown) [Example 93-A, 2-amino-6-borono-2-(1-(4-(trifluoromethyl)benzyl)piperidin-4-yl)hexanoic acid], for which the IC50 on human arginase I (ARG I) (setting [1]) and at arginase II (ARG II) (setting [2]) was 251 to 1000 nM each time.

In the case of `NC(CCCCB(O)O)(C(=O)O)C1CCN(Cc2ccc(F)cc2)CC1` (stereo not shown) [Example 94-A, 2-amino-6-borono-2-(1-(4-fluorobenzyl)piperidin-4-yl)hexanoic acid dihydrochloride], the IC50 lay in the range of 0.1 to 250 nM at human arginase I (ARG I) (setting [1]) and 251 to 1000 nM at arginase II (ARG II) (setting [2]).

Regarding `NC(CCCCB(O)O)(C(=O)O)C1CCN(Cc2ccc(Cl)c(Cl)c2)CC1` (stereo not shown) [Example 95-A, 2-amino-6-borono-2-(1-(3,4-dichlorobenzyl)piperidin-4-yl)hexanoic acid dihydrochloride], the IC50 on human arginase I (ARG I) (setting [1]) is 0.1 to 250 nM; on arginase II (ARG II) (setting [2]) it was 251 to 1000 nM.

Consider `COc1cc(F)c(CN2CCC(C(N)(CCCCB(O)O)C(=O)O)CC2)cc1OC` (stereo not shown) [Example 96-A, 2-amino-6-borono-2-(1-(2-fluoro-4,5-dimethoxybenzyl)piperidin-4-yl)hexanoic acid dihydrochloride], for which the IC50 at human arginase I (ARG I) (setting [1]) lay within 0.1 to 250 nM; on arginase II (ARG II) (setting [2]) it was 251 to 1000 nM.

For `NC(CCCCB(O)O)(C(=O)O)C1CCN(Cc2ccc(Cl)cc2Cl)CC1` (stereo not shown) [Example 97-A, 2-amino-6-borono-2-(1-(2,4-dichlorobenzyl)piperidin-4-yl)hexanoic acid dihydrochloride], the IC50 on human arginase I (ARG I) (setting [1]) and on arginase II (ARG II) (setting [2]) was 251 to 1000 nM throughout.

As for `NC(CCCCB(O)O)(C(=O)O)C1CCN(Cc2cccc3ccccc23)CC1` (stereo not shown) [Example 98-A, 2-amino-6-borono-2-(1-(naphthalen-1-ylmethyl)piperidin-4-yl)hexanoic acid dihydrochloride], the IC50 on human arginase I (ARG I) (setting [1]) and at arginase II (ARG II) (setting [2]) was 0.1 to 250 nM each time.

With `NC(CCCCB(O)O)(C(=O)O)C1CCN(Cc2ccc3ccccc3c2)CC1` (stereo not shown) [Example 99-A, 2-amino-6-borono-2-(1-(naphthalen-2-ylmethyl)piperidin-4-yl)hexanoic acid dihydrochloride], the IC50 on human arginase I (ARG I) (setting [1]) and at arginase II (ARG II) (setting [2]) was 0.1 to 250 nM throughout.

Regarding `NC(CCCCB(O)O)(C(=O)O)C1CCN(Cc2ccc(OC(F)(F)F)cc2)CC1` (stereo not shown) [Example 100-A, 2-amino-6-borono-2-(1-(4-(trifluoromethoxy)benzyl)piperidin-4-yl)hexanoic acid dihydrochloride], the IC50 at human arginase I (ARG I) (setting [1]) and at arginase II (ARG II) (setting [2]) was 0.1 to 250 nM each time.

Regarding `CCCN1CCC(C(N)(CCCCB(O)O)C(=O)O)CC1` (stereo not shown) [Example 101-A, 2-amino-6-borono-2-(1-propylpiperidin-4-yl)hexanoic acid dihydrochloride], the IC50 on human arginase I (ARG I) (setting [1]) fell in the range of 251 to 1000 nM; at arginase II (ARG II) (setting [2]), 0.1 to 250 nM.

With `NC(CCCCB(O)O)(C(=O)O)C1CCN(CCCc2ccccc2)CC1` (stereo not shown) [Example 102-A, 2-amino-6-borono-2-(1-(3-phenylpropyl)piperidin-4-yl)hexanoic acid dihydrochloride], the IC50 at human arginase I (ARG I) (setting [1]) and on arginase II (ARG II) (setting [2]) was 0.1 to 250 nM in each case.

Regarding `NC(CCCCB(O)O)(C(=O)O)C1CCN(Cc2cccc(OC(F)(F)F)c2)CC1` (stereo not shown) [Example 103-A, 2-amino-6-borono-2-(1-(3-(trifluoromethoxy)benzyl)piperidin-4-yl)hexanoic acid dihydrochloride], the IC50 at human arginase I (ARG I) (setting [1]) and on arginase II (ARG II) (setting [2]) was 0.1 to 250 nM each time.

Take `NC(CCCCB(O)O)(C(=O)O)C1CCN(Cc2csc3ccccc23)CC1` (stereo not shown) [Example 104-A, 2-amino-2-(1-(benzo[b]thiophen-3-ylmethyl)piperidin-4-yl)-6-boronohexanoic acid dihydrochloride]: the IC50 on human arginase I (ARG I) (setting [1]) and on arginase II (ARG II) (setting [2]) was 0.1 to 250 nM throughout.

As to `NC(CCCCB(O)O)(C(=O)O)C1CCN(Cc2cccc(C(=O)O)c2)CC1` (stereo not shown) [Example 105-A, 3-((4-(1-amino-5-borono-1-carboxypentyl)piperidin-1-yl)methyl)benzoic acid dihydrochloride], the IC50 at human arginase I (ARG I) (setting [1]) and at arginase II (ARG II) (setting [2]) was 251 to 1000 nM throughout.

With `N#Cc1cccc(CN2CCC(C(N)(CCCCB(O)O)C(=O)O)CC2)c1` (stereo not shown) [Example 106-A, 2-amino-6-borono-2-(1-(3-cyanobenzyl)piperidin-4-yl)hexanoic acid dihydrochloride], the IC50 on human arginase I (ARG I) (setting [1]) and at arginase II (ARG II) (setting [2]) was 251 to 1000 nM in each case.

Take `N[C@](CCCCB(O)O)(CCN1Cc2ccccc2C[C@H]1CO)C(=O)O` [compound 1, (R)-2-amino-6-borono-2-(2-((S)-3-(hydroxymethyl)-3,4-dihydroisoquinolin-2(1H)-yl)ethyl)hexanoic acid dihydrochloride]: the IC50 at human arginase I (ARG I) (Formula I compounds, Table 2) lay within 251 to 1000 nM; on arginase II (ARG II) (setting [3]), 251 to 1000 nM.

`COC[C@@H]1CCCN1CC[C@](N)(CCCCB(O)O)C(=O)O` [compound 2, (R)-2-amino-6-borono-2-(2-((S)-2-(methoxymethyl)pyrrolidin-1-yl)ethyl)hexanoic acid dihydrochloride]: the IC50 lay in the range of 251 to 1000 nM at human arginase I (ARG I) (Formula I compounds, Table 2) and 251 to 1000 nM at arginase II (ARG II) (setting [3]).

Take `COC[C@H]1CCCN1CC[C@](N)(CCCCB(O)O)C(=O)O` [compound 3, (R)-2-amino-6-borono-2-(2-((R)-2-(methoxymethyl)pyrrolidin-1-yl)ethyl)hexanoic acid dihydrochloride]: the IC50 on human arginase I (ARG I) (Formula I compounds, Table 2) was 1000 to 2000 nM; on arginase II (ARG II) (setting [3]), 1000 to 2000 nM.

`N[C@](CCCCB(O)O)(CCN1CCC(O)CC1)C(=O)O` [compound 4, (R)-2-amino-6-borono-2-(2-(4-hydroxypiperidin-1-yl)ethyl)hexanoic acid dihydrochloride]: the IC50 was in the range of 251 to 1000 nM on human arginase I (ARG I) (Formula I compounds, Table 2) and 251 to 1000 nM at arginase II (ARG II) (setting [3]).

Consider `N[C@](CCCCB(O)O)(CCN1CCC[C@H](O)C1)C(=O)O` [compound 5, (R)-2-amino-6-borono-2-(2-((S)-3-hydroxypiperidin-1-yl)ethyl)hexanoic acid dihydrochloride], for which the IC50 at human arginase I (ARG I) (Formula I compounds, Table 2) was in the range of 1000 to 2000 nM; on arginase II (ARG II) (setting [3]), 2000 to 5000 nM.

In the case of `COc1ccc(CCN(C)CC[C@](N)(CCCCB(O)O)C(=O)O)cc1OC` [compound 6, (R)-2-amino-6-borono-2-(2-((3,4-dimethoxyphenethyl)(methyl)amino)ethyl)hexanoic acid dihydrochloride], the IC50 on human arginase I (ARG I) (Formula I compounds, Table 2) fell in the range of 251 to 1000 nM; on arginase II (ARG II) (setting [3]), 1000 to 2000 nM.

With `N[C@](CCCCB(O)O)(CCN1CC[C@@H](CO)C1)C(=O)O` [compound 7, (R)-2-amino-6-borono-2-(2-((R)-3-(hydroxymethyl)pyrrolidin-1-yl)ethyl)hexanoic acid dihydrochloride], the IC50 at human arginase I (ARG I) (Formula I compounds, Table 2) fell in the range of 0.1 to 250 nM; at arginase II (ARG II) (setting [3]), 251 to 1000 nM.

Turning to `N[C@](CCCCB(O)O)(CCN1CCSCC1)C(=O)O` [compound 8, (R)-2-amino-6-borono-2-(2-thiomorpholinoethyl)hexanoic acid dihydrochloride], the IC50 at human arginase I (ARG I) (Formula I compounds, Table 2) lay in the range of 1000 to 2000 nM; at arginase II (ARG II) (setting [3]) it was 2000 to 5000 nM.

On to `N[C@](CCCCB(O)O)(CCN1CCC(CCO)CC1)C(=O)O` [compound 9, (R)-2-amino-6-borono-2-(2-(4-(2-hydroxyethyl)piperidin-1-yl)ethyl)hexanoic acid dihydrochloride], for which the IC50 on human arginase I (ARG I) (Formula I compounds, Table 2) lay in the range of 0.1 to 250 nM; on arginase II (ARG II) (setting [3]) it was 251 to 1000 nM.

As to `N[C@](CCCCB(O)O)(CCN1CCC[C@H]1CO)C(=O)O` [compound 10, (R)-2-amino-6-borono-2-(2-((S)-2-(hydroxymethyl)pyrrolidin-1-yl)ethyl)hexanoic acid], the IC50 at human arginase I (ARG I) (Formula I compounds, Table 2) lay in the range of 0.1 to 250 nM; at arginase II (ARG II) (setting [3]) it was 251 to 1000 nM.
